One compound from EP0640600A1, “Heterocyclylbenzoheterocycles” (BAYER AG, priority 1993, dated 1995) can be followed below.

Molecules are shown by their SMILES.

Series [1] has as its system Unkräuter. Description: Post-emergence test, herbicidal action on weeds. Format: in vivo. To be noted: test plants 5 - 15 cm high sprayed, damage rated after three weeks vs untreated control, application rate not given. From the text: (§1) Lösungsmittel: 5 Gewichtsteile Aceton Emulgator: 1 Gewichtsteil Alkylarylpolyglykolether Zur Herstellung einer zweckmäßigen Wirkstoffzubereitung vermischt man 1 Gewichtsteil Wirkstoff mit der angegebenen Menge Lösungsmittel, gibt die angegebene Menge Emulgator zu und verdünnt das Konzentrat mit Wasser auf die gewünschte Konzentration.
(§2) Mit der Wirkstoffzubereitung spritzt man Testpflanzen, welche eine Höhe von 5 - 15 cm haben so, daß die jeweils gewünschten Wirkstoffmengen pro Flächeneinheit ausgebracht werden. Nach drei Wochen wird der Schädigungsgrad der Pflanzen bonitiert in % Schädigung im Vergleich zur Entwicklung der unbehandelten Kontrolle.

Series [2] deals with Kulturpflanzen, wie z.B. Weizen und Soja. The following applies: in vivo.
Source text: as §1, §2

In the case of `CCCN1C(=O)COc2cc(F)c(-n3c(=O)nc(OCC)n(C)c3=O)cc21` [Beispiel 2, 3-(7-Fluor-3-oxo-4-propyl-1,4-benzoxazin-6-yl)-6-ethoxy-1-methyl-(1H,3H)-1,3,5-triazin-2,4-dion], the “Wirkung gegen Unkräuter” value in series [1] is listed as “starke Wirkung”. Besides, in series [2], the “Verträglichkeit gegenüber Kulturpflanzen, wie z.B. Weizen und Soja” value was “teilweise guter Verträglichkeit”.
